Paper PMC5712521, “Dendrogenin A drives LXR to trigger lethal autophagy in cancers” (Nature Communications, 2017)
Like-named read-outs stand apart in the source and are kept apart here.

Legend:
SKMEL-28 cells = experiment: Cell cycle analysis by flow cytometry; type: cell-based, human; conditions: 5 µM DDA, 48 h
Method: Control and DDA-treated cells were fixed in 70% ethanol and then washed with PBS. Cells were incubated with 100 μg/ml RNase A for 30 min at 37 °C, permeabilized with 0.25% Tween-20, and stained with 50 μg/ml propidium iodide (PI) for 30 min at 37 °C. The DNA content of stained cells was analyzed by flow cytometry. The fraction of cells in sub-G1 phase was calculated using flowJo software (Ashland, Oregon). Data were obtained from 10^5 viable cells. […]

[1] = system: RXRγ, FXR, SXR, PPARα, PPARγ, RARα, AHR, VDR, GR, PR, AR, ERα, ERβ; experiment: Gene reporter luciferase assays on other nuclear receptors; type: cell-based, human; conditions: 2.5 µM DDA, 8 h, with or without cognate agonist
Source text: HEK293T were used for luciferase assays. Cells were transfected using the PolyEthylenImine (PEI) method with human retinoid-X receptor (RXRγ) and human liver-X-receptors (LXRα or LXRβ) with LXRE-Luc; RXRγ and human farnesoid X receptor (FXR) with EcRE-Luc; RXRγ and human steroid and xenobiotic X receptor (SXR) with DR4-Luc; RXRγ and human peroxisome proliferator activated receptors (PPARα, or PPARγ) with PPRE-Luc; RXRγ and human retinoic acid receptor (RARα) with DR1-Luc; human AHR and human ARNT with a DRE-Luc; human vitamin D receptor (VDR) with VDRE-Luc. Cells were transfected with plasmids encoding human glucocorticoid receptor (GR), progesterone receptor (PR), or androgen receptor (AR) with MMTV-Luc; or estrogen receptors (ERα and ERβ) with an ERE-Luc. The day after transfection with the luciferase reporter gene construct, cells were seeded in 12-well plates (50,000 cells per well). […] Luciferase activity was measured using the luciferase assay reagent (Promega), according to the manufacturer’s instructions. Protein concentrations were measured using the Bradford method to normalize luciferase activities. For each condition, luciferase activity was calculated from the data of three independent wells. […]

[2] = DDA concentrations in spleen and bone marrow; type: in vivo, NSG mice; conditions: NSG, mouse, ip, daily i.p. 20 mg/kg for 21 days
Method: Bars represent S.E.M. ( ***P<0.001, **P<0.01, t test).
(also on this page, place not known: plasma times treatment mice administration plasma times treatment mice administration mg/kg mg/kg Summary pharmacokinetic parameters mice. were measured daily administration mg/kg days. (***P<0.001, mg/kg DDA in plasma (p.o.) (p.o.) DDA in plasma (µM) i.p. i.v. (mg/kg) 20 T1/2 0.1 T1/2 elimination 1.0 T1/2 - Bioavailability (%EP) (µM) 370 Tmax 0.002 marrow 0.01 0.1 1 10 Control DDA DDA level (µM) ***)

CC(C)CCC[C@@H](C)[C@H]1CC[C@H]2[C@@H]3C[C@@H](NCCc4cnc[nH]4)[C@@]4(O)C[C@@H](O)CC[C@]4(C)[C@H]3CC[C@]12C [DDA, Dendrogenin A]
Cell cycle distribution: G0/G1 (SKMEL-28 cells): 51.80% | Cell cycle distribution: G2/M (SKMEL-28 cells): 4.93% | Cell cycle distribution: S (SKMEL-28 cells): 8.99% | Cell cycle distribution: Sub G0/G1 (SKMEL-28 cells): 34.28% | agonistic or antagonistic transcriptional activity on other NRs [1]: did not show any agonistic or antagonistic transcriptional activity | concentration at 21 days ([2]; bone marrow, read-out: DDA concentration in the bone marrow): 3480 ± 530 nM | concentration at 21 days ([2]; spleen, read-out: DDA concentration in the spleen): 1320 ± 30 nM
